Reference: patent publication US20220273530A1, “BIOADHESIVE PARTICLES COMPRISING ACTIVE AGENTS, AND USES THEREOF” (SKINOSIVE, priority 2019, published 2022)

Experiments:
[1] = cited from earlier work
[2] = λmax UV absorbance of free and encapsulated UV filter; assay type: physicochemical; settings: free UV filter in ethanol
Procedure: λmax UV absorbance of free Uvinul A plus in ethanol was measured at 357 nm and λmax UV absorbance of Uvinul A plus encapsulated PLA-PEG-Mal particles in water was measured at 360 nm.

SMILES | UV filter logP [1] | λmax UV absorbance of free UV filter [2] [nm]
CCCCC(CC)COc1ccc(-c2nc(-c3ccc(OC)cc3)nc(-c3ccc(OCC(CC)CCCC)cc3O)n2)c(O)c1 (centres unmarked) [Bemotrizinol, bis-ethylhexyloxyphenol methoxyphenyl triazine] | 10.4 | 
CC1CCC(C(C)C)C(OC(=O)c2ccccc2N)C1 (centres unmarked) [Meradimate] | 5.1 | 
CCCCC(CC)COC(=O)c1ccccc1O (centres unmarked) [Octisalate] | 5.7 | 
CCCCC(CC)COC(=O)C(C#N)=C(c1ccccc1)c1ccccc1 (centres unmarked) [Octocrylene] | 7.1 | 304
COc1cc(O)c(C(=O)c2ccccc2)cc1S(=O)(=O)O [Sulisobenzone] | 2.2 | 
CCCCCCOC(=O)c1ccccc1C(=O)c1ccc(N(CC)CC)cc1O [Uvinul A Plus, diethylamino hydroxybenzoyl hexyl benzoate] | 6.5 | 357
